According to publication PMC12040169 (PLOS Biology, 2025):

Test: in vitro
Conditions: human, hela cells, % viability

Structure (SMILES) | viability at 28.5 h, 10 µM [%]
Cc1ccc(O)cc1CC[C@@H]1CC(=O)CC2(C)C1CC[C@]2(O)C(=O)COC(=O)CCC(=O)O (stereo partly drawn) [CBK007270] | 119
COc1ccc(C2CNC(=O)N2C(=O)OC(C)(C)C)cc1OC1CCCC1 (stereo not drawn) [CBK007281] | 93.8
CCN1CCCC1CNc1c(Cl)c(Cl)nc2c1c(=O)n(C)c(=O)n2C (stereo not drawn) [CBK007287] | 97.2
CCOC(=O)c1c(NC(=O)CSc2nnnn2C)sc2c1CCCC2 [CBK007332] | 103
C(=N\Nc1nnnn1-c1ccccc1)/c1ccco1 [CBK007334] | 109
CC(C)(C)NC(=O)N1CCC(=O)N1 [CBK007341] | 95.9
N#Cc1c(-c2ccccc2)noc1C/C=N/O [CBK007357] | 87.7
CCOC(=O)c1cnc2nc(N3CCOCC3)nn2c1N [CBK007371] | 96.2
COc1ccc(C(=O)NCC(=O)NCCOC(=O)c2c(-c3c(F)cccc3Cl)noc2C)cc1 [CBK007386] | 99.4
Cn1nc(C(F)(F)F)c(C#N)c1Oc1ccc(C(C)(C)C)cc1 [CBK007398] | 95.7
COC(=O)C1ON2CCCCC2C1(O)C(F)(F)F (stereo not drawn) [CBK007430] | 90.6
Oc1noc(O)c1-c1ncc(C(F)(F)F)cc1Cl [CBK007439] | 91.1
CCOCCC(=O)N/N=C(/C)c1ccc(Cl)s1 [CBK007454] | 94.8
CCCc1c(OCCCCc2nnn[nH]2)ccc(C(C)=O)c1O [CBK007468] | 90.4
CN(CC#CCN1CCCC1)C(=O)CNC(=O)OC(C)(C)C [CBK007489] | 111
c1coc(-c2nc3n(n2)CCS3)c1 [CBK007565] | 84.7
OC(COc1cccc2ccccc12)CN1CCN(C(c2ccccc2)c2ccccc2)CC1 (stereo not drawn) [CBK007591] | 93.1
COc1cc(C(=O)N2CCN(c3cc(C(C)C)ccc(CO)c3=O)CC2)cc(OC)c1OC [CBK007673] | 91
CCC(C)(C)N1CC(=O)N=C1NCCc1ccc(S(N)(=O)=O)cc1 [CBK007750] | 89.6
Nc1cccnc1OCCN1CCN(CC(=O)N2CCCCc3ccccc32)CC1 [CBK007764] | 95.1
Cn1c(N2CCOCC2)cc(=O)c2ccccc21 [CBK007775] | 93.7
CC1(C)CC(=O)C2=C(C1)OC(=O)CC2c1ccc(Cl)cc1Cl (stereo not drawn) [CBK007777] | 93.8
CCCN1C[C@@H](O)C[C@H]2[C@H](O)[C@@H]1c1ccccc1N2C(=O)OC [CBK007809] | 91.8
O=c1cc(CN2CCOCC2)oc2c(OCc3nnnn3C3CC3)cccc12 [CBK007813] | 101

Structure (SMILES) | viability at 28.5 h, 10 µM [%]
CC(C)=NOc1ncccc1C#N [CBK007841] | 115
CC(C)Nc1cccnc1N1CCN(C(=O)c2cc3cc(NC(=O)N4CCOCC4)ccc3[nH]2)CC1 [CBK007872] | 96.2
CN1CCCc2c1oc1c(OCc3cccnc3)cccc1c2=O [CBK007904] | 92.1
COc1cc(=O)n(C)c(C)n1 [CBK007924] | 91
C[C@@H]1C(=O)Nc2ccc(F)cc2N1C(=O)N1CCCC1 [CBK007936] | 96
CN(C)C1Cc2cccc3nc(S(C)(=O)=O)n(c23)C1 (stereo not drawn) [CBK007942] | 94.8
Nc1cc(Cl)nc(SCC2CCCCC2)n1 [CBK007970] | 93.2
CC(C)(C)OC(=O)NCC(N)=S [CBK007979] | 100
CC(c1cc2ccccc2s1)N(O)C(N)=O (stereo not drawn) [CBK008078] | 98.2
CC1(c2ccccc2)NC(NC2CCCCC2)=NC1=O (stereo not drawn) [CBK008081] | 97.3
O=c1c2cc(Cl)ccc2sc2ncccc12 [CBK008118] | 97.4
CC(=O)NCC1CC(=O)N(c2ccc(Br)cc2)C1 (stereo not drawn) [CBK008134] | 109
CC(C)(C)OC(=O)N[C@@H]1C(=O)OC(C(O)CO)[C@@H]1O (stereo partly drawn) [CBK008178] | 118
c1ccc(-c2cnc(C3CCCCC3)o2)cc1 [CBK008192] | 83.1
O=C(c1ccccc1)c1nnsc1-c1ccccc1 [CBK008193] | 97
O=c1cc(N2CCOCC2)oc2ccccc12 [CBK008244G] | 71.5
CN(C)CC(=O)N/N=C/c1ccsc1 [CBK008256C] | 110
C/C(=N/NC(=O)C[N+](C)(C)C)c1nn(-c2ccc(Cl)cc2)nc1C [CBK008258C] | 100
Nc1c2c(nc3ccccc13)CCCC2O (stereo not drawn) [CBK008271F] | 95.7
CC(C#CCN(C)C)N1C(=O)CCC1C (stereo not drawn) [CBK008291G] | 109
S=c1[nH]nc2ccc(N3CCOCC3)nn12 [CBK008327] | 101
CCOC(=O)NC(=O)C(C#N)/C=N/NC(=O)CCCNc1ncc(C(F)(F)F)cc1Cl (stereo not drawn) [CBK008354] | 101
O=S(=O)(NCCNc1ncc(C(F)(F)F)cc1Cl)C(F)(F)F [CBK008366] | 109
CC(=O)C(C)Oc1ncn(-c2ccccc2)n1 (stereo not drawn) [CBK008377] | 101

Structure (SMILES) | viability at 28.5 h, 10 µM [%]
O=C(O)CCCc1nc(-c2cnc3n(c2=O)CCS3)no1 [CBK008438] | 90.1
Cc1nnsc1C(=O)N1CCN(c2cc(C(F)(F)F)ccn2)CC1 [CBK008467] | 86.4
Oc1cc(C(F)(F)F)nc2[nH]nc(-c3cccs3)c12 [CBK008498] | 106
Cc1ccc(Cl)cc1Nc1nc2nc(C)c(NCC3CC3)cn2n1 [CBK008522] | 105
CCCS(=O)(=O)c1ccc(NC(=O)Nc2ccc(Cl)cc2Cl)cc1 [CBK008564] | 76.1
NCc1ccc(C(=O)N(CCc2cc(C(F)(F)F)cc(C(F)(F)F)c2)c2ccc(Cl)c(Cl)c2)cc1 [CBK008632T] | 112
CC1=NC2c3ccsc3C=CC2S1 (stereo not drawn) [CBK008720] | 112
CC1(C)O[C@@H]2O[C@@H](C(O)CNC(=O)c3ccccc3)[C@@H](NC(=O)c3ccccc3)[C@@H]2O1 (stereo partly drawn) [CBK008727] | 101
Cc1n[nH]c(=O)c2nc(-c3ccc(=O)[nH]n3)[nH]c12 [CBK008745] | 102
COc1ccc(NC(=O)N(CCO)C2CCCCC2)c(OC)c1 [CBK008768] | 90.9
COc1cc2c(cc1OC)C(CCCC#N)=[N+](C)C(C)(C)C2 [CBK008807I] | 97.9
CC(C)(C)NCC(O)COc1cccc2c3c(oc12)CCCC3 (stereo not drawn) [CBK008871C] | 90.2
CCCCN1C(=S)SC(C)(C)C1N(O)C(=O)C1CCCCC1 (stereo not drawn) [CBK008915] | 95.6
c1ccc(-c2ccc(COc3cncc(N4CCNCC4)n3)s2)nc1 [CBK008960G] | 85.4
COc1ccc(C2(CNC(C)(C)CN)CCCC2)cc1OC [CBK008989] | 104
N#CCCN(C1CCCCC1)S(=O)(=O)c1cccc2nsnc12 [CBK009093] | 94
CCC1=NNC(=O)C(CC(=O)Nc2ccccc2)c2cc(OC)c(OC)cc21 (stereo not drawn) [CBK009158] | 92.4
Cc1csc2c(N3CCSCC3)ncnc12 [CBK009169] | 100
CCCCOc1ccc(Sc2nc(C)cc(C)n2)cc1 [CBK009219] | 92.1
Nc1ncn(CC(O)CO)c2nc(N3CCOCC3)nc1-2 (stereo not drawn) [CBK009231] | 90.8
CC1(C)C(CC(=O)NC2CCCCC2)CC1C(=O)NC1CCCCC1 (stereo not drawn) [CBK009260] | 98.8
CC(C)c1cccc2c1OC(C(C)C)C(=O)N2 (stereo not drawn) [CBK009286] | 85.2
N#Cc1ccc(S(=O)(=O)NC2CCCCNC2=O)cc1 (stereo not drawn) [CBK009293] | 102
O=C1NC2CS(=O)(=O)CC2N1Cc1ccccc1 (stereo not drawn) [CBK009306] | 85.7

Structure (SMILES) | viability at 28.5 h, 10 µM [%]
CCOC(=O)CSC1=NNC(C)(c2c(O)c3ccccc3n(CC)c2=O)N1 (stereo not drawn) [CBK009370] | 92.5
O=C(CSc1ccc(Cl)cc1)NCCCN1CCOCC1 [CBK009390] | 99.6
Nc1nc(N)c(Cc2ccc(Cl)cc2Cl)c(N)n1 [CBK009425] | 94.7
COc1cc(CO)c(-c2c[nH][nH]c2=O)cc1OC [CBK009476] | 85.5
CC1COCC(C)N1c1ccc2nnc(-c3ccc(C(F)(F)F)cc3)n2n1 (stereo not drawn) [CBK009548] | 81.7
COC(=O)C(Nc1cccc(Cl)c1)(c1cc(OC)c(O)c(OC)c1)C(F)(F)F (stereo not drawn) [CBK009591] | 96.6
COCCOCCOc1ccccc1OCCOCCOC [CBK009636] | 89
CN(C)CCN(C)c1cc(C(F)(F)F)nc(NCc2ccc(Cl)cc2)n1 [CBK009668] | 93
FC(F)(F)C1CN(C2CCCCC2)C(=S)S1 (stereo not drawn) [CBK009719] | 84.2
COc1ccc(C[C@@]23CCC(=O)C[C@@H]2N(C)CC3)cc1 [CBK009720] | 102
O=c1[nH]c2cc(NCCO)c([N+](=O)[O-])cc2[nH]1 [CBK009794] | 93.2
Cc1nc(-c2cc(Cl)c(Cl)s2)cs1 [CBK009801] | 84.2
CC/C(=N\C(N)=O)c1ccccc1 [CBK009865] | 82.9
CC(C)Oc1cccc2cccc(C(O)CN(C)C)c12 (stereo not drawn) [CBK009892] | 98.5
O=C1CC2(CCCCC2)C(C(=O)O)N1 (stereo not drawn) [CBK009895] | 114
CC1(C)C(=O)N2CCN=C2c2ccccc21 [CBK009903] | 78.6
COC(=O)c1ccc2oc(-c3cc(C(O)CNC(C)(C)C)ccc3OC(C)C)cc(=O)c2c1 (stereo not drawn) [CBK009944C] | 85
O=C(c1ccccc1)C1(CO)COCc2nccn21 (stereo not drawn) [CBK009980] | 88.7
CN(C)c1cc(=O)c2cc3c(cc2o1)CCC3 [CBK010017] | 67.2
CCOCCN(CCOCC)c1nnc2ccc(Cl)nn12 [CBK010024] | 99.6
OC(Cn1ccnc1)C1CCCCC1 (stereo not drawn) [CBK010092] | 78.3
CN1C(/C=N/O)=C(O)c2ccccc2S1(=O)=O [CBK010098] | 94.1
O=C1NC(Nc2ccc(SCCN3CCOCC3)cc2)c2ccccc21 (stereo not drawn) [CBK010123] | 93.6

Same assay, conditions: human, hela cells, % viability, bulk resorufin, single well

Structure (SMILES) | viability at 28.5 h, 10 µM [%]
COc1cccc2c1OCCC2CNCCCc1ccccc1 (stereo not drawn) [CBK007716] | 91.8
